Assays:
[1] = Chromatographic hydrophobicity, logD of the compound at pH 7.4 by fast-gradient RP-HPLC method; format: physicochemical; conditions: buffer
[2] = Drug accumulation in human NCI-H292 cells at 3 to 10 uM incubated for 3 hrs by LC-MS analysis relative to azithromycin; format: ADME, cell-based; conditions: nci-h292, 3 h

chromatographic logD [1] | Drug uptake [2] [%] | SMILES
3.74 | 457 | CCCCCCCC(=O)NCCCN(C)[C@H]1C[C@@H](C)O[C@@H](O[C@@H]2[C@@H](C)[C@H](O[C@H]3C[C@@](C)(OC)[C@@H](O)[C@H](C)O3)[C@@H](C)C(=O)O[C@H](CC)[C@@](C)(O)[C@H](O)[C@@H](C)N(C)C[C@H](C)C[C@@]2(C)O)[C@@H]1O
3.74 | 207 | CCCCCCCC(=O)NCCCN1C[C@H](C)C[C@@](C)(O)[C@H](O[C@@H]2O[C@H](C)C[C@H](N(C)C)[C@H]2O)[C@@H](C)[C@H](O[C@H]2C[C@@](C)(OC)[C@@H](O)[C@H](C)O2)[C@@H](C)C(=O)O[C@H](CC)[C@@](C)(O)[C@H](O)[C@H]1C
2.74 | 41 | CCC(=O)NCCCO[C@@H]1[C@@H](C)N(C)C[C@H](C)C[C@@](C)(O)[C@H](O[C@@H]2O[C@H](C)C[C@H](N(C)C)[C@H]2O)[C@@H](C)[C@H](O[C@H]2C[C@@](C)(OC)[C@@H](O)[C@H](C)O2)[C@@H](C)C(=O)O[C@H](CC)[C@@]1(C)O
1.6 | 22 | CCC(=O)NCCCO[C@H]1[C@H](C)[C@@H](O[C@@H]2O[C@H](C)C[C@H](N(C)C)[C@H]2O)[C@](C)(O)C[C@@H](C)CN(C)[C@H](C)[C@@H](O)[C@](C)(O)[C@@H](CC)OC(=O)[C@@H]1C
2.54 | 22 | CC[C@H]1OC(=O)[C@H](C)[C@@H](O[C@H]2C[C@@](C)(OC)[C@@H](O)[C@H](C)O2)[C@H](C)[C@@H](O[C@@H]2O[C@H](C)C[C@H](N(C)C)[C@H]2OCCCNC(=O)COC)[C@](C)(O)C[C@@H](C)CN(C)[C@H](C)[C@@H](O)[C@]1(C)O
3.08 | 95 | CC[C@H]1OC(=O)[C@H](C)[C@@H](O[C@H]2C[C@@](C)(OC)[C@@H](O)[C@H](C)O2)[C@H](C)[C@@H](O[C@@H]2O[C@H](C)C[C@H](N(C)C)[C@H]2OCCCNC(=O)c2c(C)nn(C)c2Cl)[C@](C)(O)C[C@@H](C)CN(C)[C@H](C)[C@@H](O)[C@]1(C)O
2.2 | 5 | CC[C@H]1OC(=O)[C@H](C)[C@@H](O[C@H]2C[C@@](C)(OC)[C@@H](O)[C@H](C)O2)[C@H](C)[C@@H](O[C@@H]2O[C@H](C)C[C@H](N(C)C)[C@H]2O)[C@](C)(O)C[C@@H](C)CN(CCCNC(=O)c2c(C)nn(C)c2Cl)[C@H](C)[C@@H](O)[C@]1(C)O
5.18 | 756 | CCCCCCCC(=O)NCCCO[C@@H]1[C@@H](C)N(C)C[C@H](C)C[C@@](C)(O)[C@H](O[C@@H]2O[C@H](C)C[C@H](N(C)C)[C@H]2O)[C@@H](C)[C@H](O[C@H]2C[C@@](C)(OC)[C@@H](O)[C@H](C)O2)[C@@H](C)C(=O)O[C@H](CC)[C@@]1(C)O
2.06 | 5 | CC[C@H]1OC(=O)[C@H](C)[C@@H](O[C@H]2C[C@@](C)(OC)[C@@H](O)[C@H](C)O2)[C@H](C)[C@@H](O[C@@H]2O[C@H](C)C[C@H](N(C)CCCNC(C)=O)[C@H]2O)[C@](C)(O)C[C@@H](C)CN(C)[C@H](C)[C@@H](O)[C@]1(C)O
6.02 | 281 | CCCCCCCC(=O)NCCCO[C@H]1[C@H](C)O[C@@H](O[C@H]2[C@H](C)[C@@H](O[C@@H]3O[C@H](C)C[C@H](N(C)C)[C@H]3O)[C@](C)(OC)C[C@@H](C)C(=O)[C@H](C)[C@@H](O)[C@](C)(O)[C@@H](CC)OC(=O)[C@@H]2C)C[C@@]1(C)OC
3.08 | 80 | CCCCCCCC(=O)NCCCN1C[C@H](C)C[C@@](C)(O)[C@H](O[C@@H]2O[C@H](C)C[C@H](N(C)C)[C@H]2O)[C@@H](C)[C@H](O)[C@@H](C)C(=O)O[C@H](CC)[C@@](C)(O)[C@H](O)[C@H]1C
3.08 | 75 | CCCCC(=O)NCCCN(C)[C@H]1C[C@@H](C)O[C@@H](O[C@@H]2[C@@H](C)[C@H](O[C@H]3C[C@@](C)(OC)[C@@H](O)[C@H](C)O3)[C@@H](C)C(=O)O[C@H](CC)[C@@](C)(O)[C@H](O)[C@@H](C)N(C)C[C@H](C)C[C@@]2(C)O)[C@@H]1O
2.54 | 15 | CCC(=O)NCCCO[C@H]1[C@H](C)O[C@@H](O[C@H]2[C@H](C)[C@@H](O[C@@H]3O[C@H](C)C[C@H](N(C)C)[C@H]3O)[C@](C)(O)C[C@@H](C)CN(C)[C@H](C)[C@@H](O)[C@](C)(O)[C@@H](CC)OC(=O)[C@@H]2C)C[C@@]1(C)OC
2.7 | 41 | CCC(=O)NCCCO[C@H]1[C@H](O[C@@H]2[C@@H](C)[C@H](O[C@H]3C[C@@](C)(OC)[C@@H](O)[C@H](C)O3)[C@@H](C)C(=O)O[C@H](CC)[C@@](C)(O)[C@H](O)[C@@H](C)N(C)C[C@H](C)C[C@@]2(C)O)O[C@H](C)C[C@@H]1N(C)C
4.84 | 226 | CCCCCCCC(=O)NCCCN(C)[C@H]1C[C@@H](C)O[C@@H](O[C@@H]2[C@@H](C)[C@H](O)[C@@H](C)C(=O)O[C@H](CC)[C@@](C)(O)[C@H](O)[C@@H](C)N(C)C[C@H](C)C[C@@]2(C)O)[C@@H]1O
1.29 | 13 | CC[C@H]1OC(=O)[C@H](C)[C@@H](O)[C@H](C)[C@@H](O)[C@](C)(O)C[C@@H](C)CN(C)[C@H](C)[C@@H](O)[C@]1(C)O [AZITHROMYCIN AGLYCONE]
2.11 | 100 | CC[C@H]1OC(=O)[C@H](C)[C@@H](O[C@H]2C[C@@](C)(OC)[C@@H](O)[C@H](C)O2)[C@H](C)[C@@H](O[C@@H]2O[C@H](C)C[C@H](N(C)C)[C@H]2O)[C@](C)(O)C[C@@H](C)CN(C)[C@H](C)[C@@H](O)[C@]1(C)O [AZITHROMYCIN]
3.5 | 35 | CC[C@H]1OC(=O)[C@H](C)[C@@H](O[C@H]2C[C@@](C)(OC)[C@@H](O)[C@H](C)O2)[C@H](C)[C@@H](O[C@@H]2O[C@H](C)C[C@H](N(C)C)[C@H]2O)[C@](C)(OC)C[C@@H](C)C(=O)[C@H](C)[C@@H](O)[C@]1(C)O [CLARITHROMYCIN]
1.35 | 56 | CC[C@H]1OC(=O)[C@H](C)[C@@H](O)[C@H](C)[C@@H](O[C@@H]2O[C@H](C)C[C@H](N(C)C)[C@H]2O)[C@](C)(O)C[C@@H](C)CN(C)[C@H](C)[C@@H](O)[C@]1(C)O [DESCLADINOSYL AZITHROMYCIN]

From ChEMBL document CHEMBL4265872, “Around the macrolide - Impact of 3D structure of macrocycles on lipophilicity and cellular accumulation” (Eur J Med Chem, 2017)
